Measured values taken from paper PMC12603070, “A high-throughput screening approach to discover potential colorectal cancer chemotherapeutics: repurposing drugs to identify novel disruptors of 14-3-3 proteins” (Cell Death & Disease, 2025).

Legend:
HT-29 and Caco-2 cells = test: Annexin V/propidium iodide apoptosis and caspase dependence (Z-VAD-FMK) in HT-29 and Caco-2; type: cell-based, human; conditions: for Kinetics of induction of cell death and apoptosis: time courses of PI and Annexin V incorporation, HT-29 and Caco-2, 5 and 10 µM
Method: Cells were plated at a density of 20,000 cells/well into 96-well plates (PerkinElmer; #6055302) and incubated overnight at 37 °C before the addition of the drugs. One hour prior to imaging, Hoechst 33342 (Invitrogen, #H3570) and propidium iodide (Invitrogen; #P3566) were added to the wells to achieve final concentrations of 50 ng/ml and 0.5 μg/ml, respectively. To measure apoptosis, AlexaFluor 488-conjugated Annexin V (ThermoFisher, Massachusetts, USA; #A13201) was also added at a dilution of 1:400 from the commercial stock. A high-content imaging system (PerkinElmer; Operetta CLS), was used to quantify cell death and apoptosis by calculating the number of propidium iodide-positive cells relative to Hoechst-positive cells, and the number of Annexin V-positive cells relative to Hoechst-positive cells, respectively. To assess caspase-dependent apoptosis, cells were pre-treated for 30 min with the caspase inhibitor Z-VAD-FMK (BD Biosciences, New Jersey, USA; #550377; 20 μM) or the negative control Z-FA-FMK (BD Biosciences; #550411; 20 μM) prior to the incubation of drugs.

[1] = test system: BAD translocation to mitochondria in Caco-2 and HT-29 cells; test: Confocal imaging of BAD-mCitrine translocation to mitochondria in CRC cells; type: cell-based, human; conditions: 2 µM, 24 h post-treatment
Method: To visualize BAD translocation, 35 mm glass-bottom dishes (ibidi, Gräfelfing, Germany; #81158) were coated with 0.1 mg/mL Poly-D-lysine hydrobromide for 2 h at 37 °C. After coating, dishes were washed twice with sterilized water. Subsequently, cells transfected with BAD-mCitrine were seeded at a density of 20,000 cells per dish and incubated for 24 h to allow for cell attachment. For live-cell imaging, cells were then incubated for 1 h with the mitochondrial membrane potential dye tetramethylrhodamine ethyl ester (TMRE, Invitrogen; #T668) at a final concentration of 100 nM, according to the manufacturer’s instructions. Images were acquired on a Zeiss (Oberkochen, Germany) LSM-900 Airyscan inverted confocal microscope equipped with an environmental incubation system, laser lines including 488 and 561 nm, and an oil immersion 60×/1.40 Plan achromat objective. The signal from the YFP fluorophore (ex. 488 nm, det. 525–542 nm) and the TMRE (ex. 561 nm, det. 600–700 nm) were collected in super-resolution mode. The cell viability dye, DRAQ (BioLegend, California, USA; #424101), was added to the medium at a 1:1000 dilution from the commercial stock and incubated at room temperature for 30 min prior to live-cell imaging. To quantify the colocalization of BAD-mCitrine and the mitochondria labeled with the TMRE, the JACoP plugin in ImageJ was employed. A correlation analysis was performed based on Pearson’s coefficient between pixel-gray values for the two channels.

His-14-3-3ζ = molecular target: T1, His-14-3-3ζ (Homo sapiens, UniProt P63104); test: Surface plasmon resonance (SPR) on immobilized His-14-3-3ζ; type: binding; conditions: for kd: SPR dissociation rate; for BI ([Signal (RU)]): SPR fit parameter, per curve; for kon: pH 7.8, SPR association rate, read-out: ka
T1 construct: made in house; host or cells: Escherichia coli BL21 LOBSTR-RIL
T1 sequence (P63104 1-245): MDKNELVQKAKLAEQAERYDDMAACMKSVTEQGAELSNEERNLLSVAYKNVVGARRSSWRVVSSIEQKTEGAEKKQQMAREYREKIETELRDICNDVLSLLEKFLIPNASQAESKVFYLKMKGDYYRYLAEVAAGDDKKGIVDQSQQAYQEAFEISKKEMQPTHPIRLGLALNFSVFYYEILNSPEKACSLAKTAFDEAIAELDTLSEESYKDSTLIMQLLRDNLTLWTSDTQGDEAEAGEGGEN
Method: The published protocol of Higuchi & Ottmann as followed with modifications to express 14-3-3ζ [44]. Escherichia coli BL21 LOBSTR-RIL cells were transformed with a plasmid encoding His-14-3-3ζ. The transformed cells were grown in TB medium containing appropriate antibiotic at 37 °C with shaking at 200 rpm until the culture reached an optical density of 0.6–0.8 at 600 nm (OD600). Protein expression was induced by the addition of isopropyl β-D-1-thiogalactopyranoside to a final concentration of 0.4 mM. Subsequently, the temperature was decreased to 16 °C and the culture incubated for another 16 h. Cells were harvested by centrifugation at 7000 × g for 20 min at 21 °C. The supernatant was discarded, and the cell pellet containing 14-3-3ζ was mixed and resuspended in lysis buffer (50 mM Tris, pH 7.80), 500 mM NaCl, 5 mM imidazole, 5% glycerol, 1 mM PMSF & 1 mM Benzamidine. Cells were lysed by sonication on ice using a probe sonicator (20 cycles of 10 s on, 20 s off, amplitude 70%). The lysate was centrifuged at 30,000 × g for 30 min at 4 °C to remove cell debris. The supernatant was collected for further purification. The 14-3-3ζ was isolated from the lysate by affinity chromatography (Ni-NTA beads, Qiagen). For further purification, the eluant was subjected to size exclusion chromatography using a Superdex 75 gel filtration column (HiLoad 16/600, GE Healthcare), pre-equilibrated with SEC buffer (20 mM Tris, pH 7.5, 150 mM NaCl, 1 mM TCEP). The protein solution was concentrated by ultrafiltration, flash frozen, and stored at −80 °C.
The general protocol for evaluating 14-3-3ζ was adapted from Hartman et al. and modified for our instrument and sensors. The SPR experiments were performed using a Open surface plasmon resonance instrument (OpenSPR^TM, Nicoya, Kitchener-Waterloo, Canada), and high sensitivity-nitrilotriacetic acid (HS-NTA) sensors. The sensor chip surface was first activated with 40 mM of NiCl2 at a flow rate of 20 μL/min using 20 mM HEPES pH 7.8, 150 mM NaCl and 1% DMSO as the running buffer. All running buffers were filtered and degassed prior to use. 100 μg/mL His-14-3-3ζ protein in 20 mM HEPES pH 7.8, 150 mM NaCl and 1% DMSO was injected at 8 μL/min flow rate for 800 s contact time and immobilized until the instrument registered 2900–3500 RU (activation and protein immobalization spectrograms are provided as Supplementary Fig. 10). Drugs were dissolved in DMSO and were diluted with 20 mM HEPES pH 7.8, 150 mM NaCl (final DMSO concentration of 1% v/v) and were injected at a flow rate of 50 μL/min. Single-cycle kinetics were applied for KD evaluation and binding affinity using TraceDrawer v.1.8.1 (Ridgeview Instruments AB).

[2] = SPR fit, value repeated per curve
[3] = SPR, immobilized His-14-3-3ζ, single-cycle kinetics, 1% DMSO

| Bmax ([Signal (RU)]) (His-14-3-3ζ; SPR curve at 0.0009 mM ligand) [RU] | Bmax ([Signal (RU)]) (His-14-3-3ζ; SPR curve at 0.005 mM ligand) [RU] | Bmax ([Signal (RU)]) (His-14-3-3ζ; SPR curve at 0.007 mM ligand) [RU] | Bmax ([Signal (RU)]) (His-14-3-3ζ; SPR curve at 0.01 mM ligand) [RU] | kd (His-14-3-3ζ; value repeated per curve) [s⁻¹] | BI ([Signal (RU)]) (His-14-3-3ζ) [RU] | Kd (His-14-3-3ζ; [2]) [nM] | Kd (His-14-3-3ζ; [3]) [nM] | kon (His-14-3-3ζ; value repeated per curve) [M⁻¹ s⁻¹] | Bmax ([Signal (RU)]) (His-14-3-3ζ; SPR curve at 0.003 mM ligand) [RU] | Bmax ([Signal (RU)]) (His-14-3-3ζ; SPR curve at 0.02 mM ligand) [RU] | Kd (His-14-3-3ζ; SPR, immobilized 14-3-3ζ) [nM] | Structure (SMILES) | Kinetics of induction of cell death and apoptosis (HT-29 and Caco-2 cells) | Mitochondrial translocation of BAD [1] | Effect of Z-VAD-FMK on annexin V incorporation (HT-29 and Caco-2 cells; lomitapide-treated Caco-2 cells, 10 μM, 48 h) |
| --- | --- | --- | --- | --- | --- | --- | --- | --- | --- | --- | --- | --- | --- | --- | --- |
| 99.25 | 72.64 | 80.65 | 100.4 | 0.00974 | 0.1 | 1350 | 1350 | 7240 |  |  |  | OC1(c2ccc(Cl)c(C(F)(F)F)c2)CCN(CCCC(c2ccc(F)cc2)c2ccc(F)cc2)CC1 [Penfluridol] | more rapidly than lomitapide | Mitochondrial translocation of BAD was observed |  |
| 55.11 |  |  | 270.8 | 0.0109 | 0.1 | 858 | 890 | 12700 | 159.43 | 311.25 | 900 | O=C(NC1CCN(CCCCC2(C(=O)NCC(F)(F)F)c3ccccc3-c3ccccc32)CC1)c1ccccc1-c1ccc(C(F)(F)F)cc1 [Lomitapide] |  | Mitochondrial translocation of BAD was observed | preventing annexin V incorporation |
| 2.87 | 227.4 |  |  | 0.00856 | 0.1 | 10600 | 10600 | 807 |  | 342.32 |  | CCCCCCCCc1ccc(CCC(N)(CO)CO)cc1 [Fingolimod (FTY720), Fingolimod] |  |  |  |
| 166.72 | 144.99 | 177.73 | 179.00 | 0.0185 | 0.1 | 2960 | 2960 | 6260 |  |  |  | CC(C)(C)c1ccc(C(O)CCCN2CCC(C(O)(c3ccccc3)c3ccccc3)CC2)cc1 (stereo not drawn) [Terfenadine] | more rapidly than lomitapide | Mitochondrial translocation of BAD was observed |  |
